In patent publication US20220153734A1, “Pyrazolopyridine Compounds For IRE1 Inhibition” (Optikira, LLC, priority 2019, published 2022):

Assays:
IRE1α = target: T1, IRE1α (Homo sapiens, UniProt O75460); experiment: Biochemical assay: inhibition of RNase activity of IRE1α; conditions: enzyme 0.325 nM, substrate 100 nM, 20 minutes
T1 construct: purchased Signal Chem E31-11G
Summary of the method: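 RNase cleavage monitored as dequenching of a 5′ Alexa Fluor 647/3′ quencher RNA oligo (100 nM), stopped with 5 M urea after 20 min at room temperature. Enzyme 0.325 nM, preceded by 30 min compound pre-incubation; buffer Tris/MgCl2/KCl/DTT/Tween, 4% DMSO final. IC50 from curve fit of % inhibition.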

[1] = tested on: ARPE-19 cells stably expressing XBP1 (a.a. 1-376); experiment: Cellular XBP1 splicing assay (NanoLuc luciferase, thapsigargin); assay type: cell-based; conditions: Homo sapiens, ARPE-19, 4 h, thapsigargin 150 nM
Summary of the method: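 ARPE-19 cells carrying an XBP1(1-376)-NanoLuc splicing reporter were pretreated with compound (10-point ½-log series, 0.117% DMSO) for 30 min, then stressed with 150 nM thapsigargin for 4 h at 37° C. Luminescence was read, and IC50 values came from sigmoidal fits of percent inhibition of control.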

T1 sequence (O75460 468-977 limits assumed): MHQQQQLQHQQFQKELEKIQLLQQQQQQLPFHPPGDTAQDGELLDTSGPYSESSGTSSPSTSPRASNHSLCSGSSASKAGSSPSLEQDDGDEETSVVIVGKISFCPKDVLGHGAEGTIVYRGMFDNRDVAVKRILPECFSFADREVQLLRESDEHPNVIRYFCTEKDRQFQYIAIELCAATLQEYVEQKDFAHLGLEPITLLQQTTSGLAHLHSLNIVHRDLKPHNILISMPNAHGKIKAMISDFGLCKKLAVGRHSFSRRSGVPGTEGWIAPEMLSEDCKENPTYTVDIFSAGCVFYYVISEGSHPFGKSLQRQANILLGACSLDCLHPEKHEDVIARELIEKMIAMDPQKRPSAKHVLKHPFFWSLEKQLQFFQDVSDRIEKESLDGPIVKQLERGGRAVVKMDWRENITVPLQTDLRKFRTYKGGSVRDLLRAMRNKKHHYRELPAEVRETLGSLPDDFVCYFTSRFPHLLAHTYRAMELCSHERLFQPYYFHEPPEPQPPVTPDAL

Structure (SMILES) | IC50 (IRE1α) [nM] | IC50 [1] [nM]
COCCN[C@H]1CC[C@H](c2cnc(N)c3c(-c4cc(F)c(NS(=O)(=O)c5ccccc5Cl)cc4F)nn(C(C)C)c32)CC1 [Compound A19, N-(4-(4-amino-1-isopropyl-7-((1r,4r)-4-((2-methoxyethyl)amino)cyclohexyl)-1H-pyrazolo[4,3-c]pyridin-3-yl)-2,5-difluorophenyl)-2-chlorobenzenesulfonamide] | 6.1 | 4
COCCN[C@H]1CC[C@H](c2cnc(N)c3c(-c4cc(F)c(NS(=O)(=O)Cc5ccccc5Cl)cc4F)nn(C(C)C)c32)CC1 [Compound A20, N-(4-(4-amino-1-isopropyl-7-((1r,4r)-4-((2-methoxyethyl)amino)cyclohexyl)-1H-pyrazolo[4,3-c]pyridin-3-yl)-2,5-difluorophenyl)-1-(2-chlorophenyl)methanesulfonamide] | 1.2 | 13
COCCN[C@H]1CC[C@H](c2cnc(N)c3c(-c4cc(F)c(NS(=O)(=O)c5cc(C#N)ccc5F)cc4F)nn(C(C)C)c32)CC1 [Compound A21, N-(4-(4-amino-1-isopropyl-7-((1r,4r)-4-((2-methoxyethyl)amino)cyclohexyl)-1H-pyrazolo[4,3-c]pyridin-3-yl)-2,5-difluorophenyl)-5-cyano-2-fluorobenzenesulfonamide] | 4.7 | 3800
CC(C)n1nc(-c2cc(F)c(NS(=O)(=O)Cc3ccccc3F)cc2F)c2c(N)ncc([C@H]3CC[C@H](N(C)C)CC3)c21 [Compound A22, N-(4-(4-amino-7-((1r,4r)-4-(dimethylamino)cyclohexyl)-1-isopropyl-1H-pyrazolo[4,3-c]pyridin-3-yl)-2,5-difluorophenyl)-1-(2-fluorophenyl)methanesulfonamide] | 1.8 | 15
COCCN[C@H]1CC[C@H](c2cnc(N)c3c(-c4cc(F)c(NS(=O)(=O)c5c(F)cccc5F)cc4F)nn(C(C)C)c32)CC1 [Compound A23, N-(4-(4-amino-1-isopropyl-7-((1r,4r)-4-((2-methoxyethyl)amino)cyclohexyl)-1H-pyrazolo[4,3-c]pyridin-3-yl)-2,5-difluorophenyl)-2,6-difluorobenzenesulfonamide] | 9.7 | 160
COCCN[C@H]1CC[C@H](c2cnc(N)c3c(-c4cc(F)c(NS(=O)(=O)c5ccc(F)cc5F)cc4F)nn(C(C)C)c32)CC1 [Compound A24, N-(4-(4-amino-1-isopropyl-7-((1r,4r)-4-((2-methoxyethyl)amino)cyclohexyl)-1H-pyrazolo[4,3-c]pyridin-3-yl)-2,5-difluorophenyl)-2,4-difluorobenzenesulfonamide] | 5.4 | 82
COCCN[C@H]1CC[C@H](c2cnc(N)c3c(-c4cc(F)c(NS(=O)(=O)c5cccc(F)c5F)cc4F)nn(C(C)C)c32)CC1 [Compound A25, N-(4-(4-amino-1-isopropyl-7-((1r,4r)-4-((2-methoxyethyl)amino)cyclohexyl)-1H-pyrazolo[4,3-c]pyridin-3-yl)-2,5-difluorophenyl)-2,3-difluorobenzenesulfonamide] | 9 | 25
COCCN[C@H]1CC[C@H](c2cnc(N)c3c(-c4cc(F)c(NS(=O)(=O)Cc5ccccc5F)cc4F)nn(C(C)C)c32)CC1 [Compound A26, N-(4-(4-amino-1-isopropyl-7-((1r,4r)-4-((2-methoxyethyl)amino)cyclohexyl)-1H-pyrazolo[4,3-c]pyridin-3-yl)-2,5-difluorophenyl)-1-(2-fluorophenyl)methanesulfonamide] | 1.5 | 13
COCCN(CCOC)[C@H]1CC[C@H](c2cnc(N)c3c(-c4cc(F)c(NS(=O)(=O)c5cc(OC)ccc5F)cc4F)nn(C(C)C)c32)CC1 [Compound A27, N-(4-(4-amino-7-((1r,4r)-4-(bis(2-methoxyethyl)amino)cyclohexyl)-1-isopropyl-1H-pyrazolo[4,3-c]pyridin-3-yl)-2,5-difluorophenyl)-2-fluoro-5-methoxybenzenesulfonamide] | 13 | 13
COCCN[C@H]1CC[C@H](c2cnc(N)c3c(-c4cc(F)c(NS(=O)(=O)c5cc(OC)ccc5F)cc4F)nn(C(C)C)c32)CC1 [Compound A28] | 2.9 | 6.9
COCCN(CCOC)[C@H]1CC[C@H](c2cnc(N)c3c(-c4cc(F)c(NS(=O)(=O)c5cccc(C(F)(F)F)c5)cc4F)nn(C(C)C)c32)CC1 [Compound A29, N-(4-(4-amino-7-((1r,4r)-4-(bis(2-methoxyethyl)amino)cyclohexyl)-1-isopropyl-1H-pyrazolo[4,3-c]pyridin-3-yl)-2,5-difluorophenyl)-3-(trifluoromethyl)benzenesulfonamide] | 32 | 500
COCCN[C@H]1CC[C@H](c2cnc(N)c3c(-c4cc(F)c(NS(=O)(=O)c5cccc(C(F)(F)F)c5)cc4F)nn(C(C)C)c32)CC1 [Compound A30, N-(4-(4-amino-1-isopropyl-7-((1r,4r)-4-((2-methoxyethyl)amino)cyclohexyl)-1H-pyrazolo[4,3-c]pyridin-3-yl)-2,5-difluorophenyl)-3-(trifluoromethyl)benzenesulfonamide] | 3.8 | 93
COCCN[C@H]1CC[C@H](c2cnc(N)c3c(-c4cc(F)c(NS(=O)(=O)c5cc(F)ccc5F)cc4F)nn(C(C)C)c32)CC1 [Compound A31, N-(4-(4-amino-1-isopropyl-7-((1r,4r)-4-((2-methoxyethyl)amino)cyclohexyl)-1H-pyrazolo[4,3-c]pyridin-3-yl)-2,5-difluorophenyl)-2,5-difluorobenzenesulfonamide] | 8.6 | 39
COCCN[C@H]1CC[C@H](c2cnc(N)c3c(-c4cc(F)c(NS(=O)(=O)c5ccc(F)cc5)cc4F)nn(C(C)C)c32)CC1 [Compound A32, N-(4-(4-amino-1-isopropyl-7-((1r,4r)-4-((2-methoxyethyl)amino)cyclohexyl)-1H-pyrazolo[4,3-c]pyridin-3-yl)-2,5-difluorophenyl)-4-fluorobenzenesulfonamide] | 17 | 110
COCCN(CCOC)[C@H]1CC[C@H](c2cnc(N)c3c(-c4cc(F)c(NS(=O)(=O)c5ccccc5F)cc4F)nn(C(C)C)c32)CC1 [Compound A35, N-(4-(4-amino-7-((1r,4r)-4-(bis(2-methoxyethyl)amino)cyclohexyl)-1-isopropyl-1H-pyrazolo[4,3-c]pyridin-3-yl)-2,5-difluorophenyl)-2-fluorobenzenesulfonamide] | 60 | 55
COCCN(C)[C@H]1CC[C@H](c2cnc(N)c3c(-c4cc(F)c(NS(=O)(=O)c5ccccc5F)cc4F)nn(C(C)C)c32)CC1 [Compound A36, N-(4-(4-amino-1-isopropyl-7-((1r,4r)-4-((2-methoxyethyl)(methyl)amino)cyclohexyl)-1H-pyrazolo[4,3-c]pyridin-3-yl)-2,5-difluorophenyl)-2-fluorobenzenesulfonamide] | 13 | 18
COCCN[C@H]1CC[C@H](c2cnc(N)c3c(-c4cc(F)c(NS(=O)(=O)c5ccccc5F)cc4F)nn(C(C)C)c32)CC1 [Compound A37, N-(4-(4-amino-1-isopropyl-7-((1r,4r)-4-((2-methoxyethyl)amino)cyclohexyl)-1H-pyrazolo[4,3-c]pyridin-3-yl)-2,5-difluorophenyl)-2-fluorobenzenesulfonamide] | 12 | 20
CC(C)n1nc(-c2cc(F)c(NS(=O)(=O)c3ccccc3F)cc2F)c2c(N)ncc([C@H]3CC[C@H](N(C)C4COC4)CC3)c21 [Compound A38] | 12 | 13
CC(C)n1nc(-c2ccc(NS(=O)(=O)Cc3ccccc3Cl)c(F)c2)c2c(N)ncc([C@H]3CC[C@H](NC4COC4)CC3)c21 [Compound A39, N-(4-(4-amino-1-isopropyl-7-((1r,4r)-4-(oxetan-3-ylamino)cyclohexyl)-1H-pyrazolo[4,3-c]pyridin-3-yl)-2-fluorophenyl)-1-(2-chlorophenyl)methanesulfonamide] | 0.3 | 1.7
CC(C)n1nc(-c2cc(F)c(NS(=O)(=O)c3ccccc3F)cc2F)c2c(N)ncc([C@H]3CC[C@H](N(C)C)CC3)c21 [Compound A40, N-(4-(4-amino-7-((1r,4r)-4-(dimethylamino)cyclohexyl)-1-isopropyl-1H-pyrazolo[4,3-c]pyridin-3-yl)-2,5-difluorophenyl)-2-fluorobenzenesulfonamide] | 5.6 | 27
Nc1ncc([C@H]2CC[C@H](NC3COC3)CC2)c2c1c(-c1ccc(NS(=O)(=O)Cc3ccccc3F)c(F)c1)nn2C1CC1 [Compound A54, N-(4-(4-amino-1-cyclopropyl-7-((1r,4r)-4-(oxetan-3-ylamino)cyclohexyl)-1H-pyrazolo[4,3-c]pyridin-3-yl)-2-fluorophenyl)-1-(2-fluorophenyl)methanesulfonamide] | 0.9 | 9
Nc1ncc([C@H]2CC[C@H](NC3COC3)CC2)c2c1c(-c1ccc(NS(=O)(=O)Cc3ccccc3Cl)c(F)c1)nn2C1CC1 [Compound A55, N-(4-(4-amino-1-cyclopropyl-7-((1r,4r)-4-(oxetan-3-ylamino)cyclohexyl)-1H-pyrazolo[4,3-c]pyridin-3-yl)-2-fluorophenyl)-1-(2-chlorophenyl)methanesulfonamide] | 0.7 | 7.2
Nc1ncc([C@H]2CC[C@H](NC3COC3)CC2)c2c1c(-c1ccc(NS(=O)(=O)c3ccccc3Cl)c(F)c1)nn2C1CC1 [Compound A56, N-(4-(4-amino-1-cyclopropyl-7-((1r,4r)-4-(oxetan-3-ylamino)cyclohexyl)-1H-pyrazolo[4,3-c]pyridin-3-yl)-2-fluorophenyl)-2-chlorobenzenesulfonamide] | 3.5 | 15
